Molecular target: WRN helicase (Werner syndrome protein) (Homo sapiens, UniProt Q14191)
Test: in vitro WRN helicase
Format: biochemical

WRN helicase (Werner syndrome protein), sequence (Q14191 2-1432): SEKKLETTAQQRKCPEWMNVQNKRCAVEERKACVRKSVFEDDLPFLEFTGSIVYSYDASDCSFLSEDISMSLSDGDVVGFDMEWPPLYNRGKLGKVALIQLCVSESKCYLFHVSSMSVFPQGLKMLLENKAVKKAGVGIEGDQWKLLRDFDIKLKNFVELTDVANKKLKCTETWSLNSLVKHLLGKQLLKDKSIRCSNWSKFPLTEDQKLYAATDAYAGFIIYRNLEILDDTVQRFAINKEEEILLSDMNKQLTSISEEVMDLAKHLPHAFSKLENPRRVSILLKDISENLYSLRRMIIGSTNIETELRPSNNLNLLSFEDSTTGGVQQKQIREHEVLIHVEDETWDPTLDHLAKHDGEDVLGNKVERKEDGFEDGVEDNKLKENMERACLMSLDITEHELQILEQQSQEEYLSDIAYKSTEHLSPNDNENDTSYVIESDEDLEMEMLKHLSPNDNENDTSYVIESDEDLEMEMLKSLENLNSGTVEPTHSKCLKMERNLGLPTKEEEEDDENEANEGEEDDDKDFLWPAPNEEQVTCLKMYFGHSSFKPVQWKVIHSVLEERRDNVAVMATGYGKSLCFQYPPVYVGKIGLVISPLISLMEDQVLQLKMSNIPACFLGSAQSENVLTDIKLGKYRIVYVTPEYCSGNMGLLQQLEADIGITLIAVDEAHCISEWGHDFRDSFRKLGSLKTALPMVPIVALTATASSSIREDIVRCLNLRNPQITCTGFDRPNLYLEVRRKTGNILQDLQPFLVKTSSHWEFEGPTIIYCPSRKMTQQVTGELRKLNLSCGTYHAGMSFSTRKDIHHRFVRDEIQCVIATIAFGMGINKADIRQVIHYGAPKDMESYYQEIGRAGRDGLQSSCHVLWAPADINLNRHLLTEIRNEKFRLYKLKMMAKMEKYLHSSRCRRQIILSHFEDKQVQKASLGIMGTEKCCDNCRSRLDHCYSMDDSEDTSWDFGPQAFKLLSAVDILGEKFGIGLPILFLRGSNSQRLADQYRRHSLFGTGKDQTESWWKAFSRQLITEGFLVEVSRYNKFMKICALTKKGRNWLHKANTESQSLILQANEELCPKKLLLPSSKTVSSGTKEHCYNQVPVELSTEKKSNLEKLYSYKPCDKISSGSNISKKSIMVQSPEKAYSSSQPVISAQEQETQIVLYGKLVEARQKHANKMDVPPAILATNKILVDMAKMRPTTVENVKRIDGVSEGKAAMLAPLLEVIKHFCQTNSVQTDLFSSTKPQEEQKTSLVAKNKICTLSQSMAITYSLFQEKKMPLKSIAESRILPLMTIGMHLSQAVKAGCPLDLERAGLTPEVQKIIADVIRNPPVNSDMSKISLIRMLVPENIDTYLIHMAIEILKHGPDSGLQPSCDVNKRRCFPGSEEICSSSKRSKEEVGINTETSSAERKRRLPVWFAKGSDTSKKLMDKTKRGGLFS

IC50: 230 nM
SMILES: CC(C)(CN1C(=O)C(Cl)=C(Cl)C1=O)CN1C(=O)C(Cl)=C(Cl)C1=O [NSC 617145]

Reference: paper PMC3766423 (Cancer research, 2013)
